“Also recorded” adds a separate entry of the source. Ends that are not written are not given here.
Key:
[1] = tested on: L. lactis CBC7; assay: Deferred antagonism assay; type: cell-based; design: key: + = Enhanced bioactivity relative to control; − = Bioactivity equal to or less than control; NA = no activity evident; settings: producing strain
Method in brief: (§1)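 Well-diffusion testing of purified nisin variants in 0.005% acetic acid, serially diluted, 37° C overnight; AU/ml = reciprocal of last dilution with definite zone × 20. Deferred antagonism: overnight GM17 colonies overlaid with seeded soft agar (0.75%); zone = clearing diameter minus 5 mm.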

[2] = tested on: S. aureus CBC4; assay: Deferred antagonism assay; type: cell-based; design: key: + = Enhanced bioactivity relative to control; − = Bioactivity equal to or less than control; NA = no activity evident; settings: producing strain
Method in brief: as §1

[3] = tested on: L. lactis CBC8; assay: Deferred antagonism assay; type: cell-based; design: key: + = Enhanced bioactivity relative to control; − = Bioactivity equal to or less than control; NA = no activity evident; settings: producing strain
Method in brief: as §1

[4] = tested on: L. monocytogenes CBC2; assay: Deferred antagonism assay; type: cell-based, Listeria monocytogenes; design: key: + = Enhanced bioactivity relative to control; − = Bioactivity equal to or less than control; NA = no activity evident; settings: producing strain; L. mono CBC2
Method in brief: as §1

[5] = tested on: L. monocytogenes CBC3; assay: Deferred antagonism assay; type: cell-based, Listeria monocytogenes; design: key: + = Enhanced bioactivity relative to control; − = Bioactivity equal to or less than control; NA = no activity evident; settings: producing strain; L. mono CBC3
Method in brief: as §1

[6] = tested on: L. monocytogenes CBC1; assay: Deferred antagonism assay; type: cell-based, Listeria monocytogenes; design: key: + = Enhanced bioactivity relative to control; − = Bioactivity equal to or less than control; NA = no activity evident; settings: producing strain; L. mono CBC1
Method in brief: as §1

[7] = tested on: L. plantarum CBC6; assay: Deferred antagonism assay; type: cell-based, Lactobacillus plantarum; design: key: + = Enhanced bioactivity relative to control; − = Bioactivity equal to or less than control; NA = no activity evident; settings: producing strain
Method in brief: as §1

[8] = tested on: C. sporogenes CBC5; assay: Deferred antagonism assay; type: cell-based, Clostridium sporogenes; design: key: + = Enhanced bioactivity relative to control; − = Bioactivity equal to or less than control; NA = no activity evident; settings: producing strain
[9] = tested on: indicator strains; assay: Deferred antagonism assays, various indicator strains (summary); type: cell-based; settings: for bioactivity of the producing strain, in words: in general / against the strains tested
Method in brief: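 Producer strains were replicated on GM17 or GM17 x-gal agar, grown overnight, then overlaid with GM17, BHI, TS or MH soft agar (0.75% w/v) seeded with the indicator strain. Zone size was taken as the clearing diameter minus the diameter of bacterial growth (5 mm).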

[10] = tested on: Strep. agalactiae ATCC13813; assay: Deferred antagonism assay; type: cell-based; settings: producing strain, diameter of zone minus 5 mm, average of duplicates
Method: (§2) Deferred antagonism assays were performed by replicating strains on GM17 or GM17 x-gal agar plates and allowing them to grow overnight before overlaying with either GM17/BHI/TS/MH agar (0.75% w/v agar) seeded with the appropriate indicator strain. Zone size was calculated as the diameter of the zone of clearing minus the diameter of bacterial growth (5 mm) For higher throughput screening of N20PXX, XM21VX, XXK22T and XXX banks deferred antagonism assays were performed by replicating strains using a 96 pin replicator (Boekel) or spotting 5 μl of a fresh overnight culture on GM17 agar plates and allowing them to grow overnight. […] Additional sets of indicators were employed to further assess/reassess the bioactivity of a number of strains. […] For well-diffusion assays molten agar was cooled to 48° C. and seeded with the appropriate indicator strain. The inoculated medium was rapidly transferred into sterile Petri plates in 50 ml volumes, allowed to solidify and dried. Wells (4.6 mm in diameter) were then made in the seeded plates. Purified nisin and mutant nisins were resuspended in 0.005% acetic acid, serially diluted, 50 μl volumes were dispensed into the aforementioned wells and the plates incubated at 37° C. overnight. Bioactivity was expressed as arbitrary units/ml (AU/ml) and calculated as the reciprocal of the highest dilution that gave a definite zone multiplied by the conversion factor (i.e. 20 when 50 μl was used) (Ryan et al., 1996).
(§3) As a consequence of the enhanced activities of K22T and K22S, a more in-depth investigation of this region was carried out. Saturation mutagenesis was undertaken to create a bank of nisin A hinge derivatives containing the vast majority of possible amino acid substitutions for each position. Although pPTPL was used successfully for random mutagenesis, its relatively large size of approx 10.5 kb was considered unsuitable for the complete plasmid PCR amplification approach utilized for saturation mutagenesis. A smaller (approx 6 kb) E. coli-L. lactis shuttle vector pCI372 was considered to be potentially more useful. Its suitability with respect to the in trans expression of nisA was confirmed by the ability of pDFO5 to restore the nisin positive phenotype. Saturation mutagenesis was performed on each codon using pDF05 and oligonucleotides (Table 5) that replace the specific codon with a NNK triplet, potentially encoding all 20 standard amino acids. Following complete plasmid amplification and introduction into the intermediate Top10 host, sequence analysis of a pooled bank of pDF05 derivatives confirmed randomization. Introduction of these variants into L. lactis NZ9800 allowed the expression of mutant nisin A peptides for further analysis. […] 46 residue conversions were isolated. All strains, regardless of bioactivity, were assessed with a view to comprehensively assessing the consequences of each individual hinge alteration.
(§4) Values are an average of duplicate experiments and represent zone size (diameter of zone minus diameter of bacterial growth (i.e. 5 mm) relative to that of the NZ9800 pCI372nisA control. X=Mutants not identified.

[11] = tested on: Staph. aureus ST528 (MRSA); assay: Deferred antagonism assay; type: cell-based; settings: producing strain, diameter of zone minus diameter of bacterial growth (5 mm), average of duplicates
Method: as §2, §3, §4

[12] = tested on: Staph. aureus DPC5245; assay: Deferred antagonism assay; type: cell-based; settings: producing strain; diameter of zone minus 5 mm; average of duplicates; St. aureus DPC5245
Method: as §2, §3, §4

Substance | Bioactivity relative to control [1] | Bioactivity relative to control [2] | Bioactivity relative to control [3] | Bioactivity relative to control [4] | Bioactivity relative to control [5] | Bioactivity relative to control [6] | Bioactivity relative to control [7] | Bioactivity relative to control [8] | Strain(s) against which the derivative (producing strain) displays enhanced bioactivity ([9]; relative to nisin A-producing control, value = strains listed) | zone size relative to that of the NZ9800 pCI372nisA control [10] | zone size relative to that of the NZ9800 pCI372nisA control [11] | bioactivity of the producing strain, in words [9] | zone size relative to that of the NZ9800 pCI372nisA control [12]
NisinA M21Y (ITSISLCTPGCKTGALMGCNYKTATCHCSIHVSK; not fully specified; also: lantibiotic: lanthionine rings and dehydro residues not placed; UniProt P13068 24-57, looked up, variant M21Y) [nisin A derivative, hinge substitution M21Y] | + | + | − | + | + | − | − | + | L. monocytogenes CBC2 and CBC3 as well as Staph. aureus CBC4, C. sporogenes CBC5 and L. lactis CBC7; also recorded: L. monocytogenes CBC2, CBC3, S. aureus CBC4, C. sporogenes CBC5 and L. lactis 7 | 65% |  |  | 
N20W: nisin A derivative, hinge substitution N20W (ITSISLCTPGCKTGALMGCWMKTATCHCSIHVSK; cysteine pairing not given here; also: lantibiotic nisin-A; UniProt P13068 24-57, looked up, variant N20W) | − | − | − | − | − | − | − | − |  | 0% | 5.4% |  | 
M21R: nisin A derivative, hinge substitution M21R (ITSISLCTPGCKTGALMGCNRKTATCHCSIHVSK; cysteine pairing not given here; also: lantibiotic nisin-A; UniProt P13068 24-57, looked up, variant M21R) |  |  |  |  |  |  |  |  |  | 66% | 56.5% | greatly reduced bioactivities | 61%
K22E: nisin A derivative, hinge substitution K22E; no detectable production (ITSISLCTPGCKTGALMGCNMETATCHCSIHVSK; cysteine pairing not given here; also: lantibiotic nisin-A; UniProt P13068 24-57, looked up, variant K22E) |  |  |  |  |  |  |  |  |  | 0% | 0% |  | 0%
K22R: nisin A derivative, hinge substitution K22R (ITSISLCTPGCKTGALMGCNMRTATCHCSIHVSK; cysteine pairing not given here; also: lantibiotic nisin-A; UniProt P13068 24-57, looked up, variant K22R) |  |  |  |  |  |  |  |  |  | 56% | 42.5% | greatly reduced bioactivities | 45%
M21T: nisin A derivative, hinge substitution M21T (ITSISLCTPGCKTGALMGCNTKTATCHCSIHVSK; cysteine pairing not given here; also: lantibiotic nisin-A; UniProt P13068 24-57, looked up, variant M21T) |  |  |  |  |  |  |  |  |  | 110% | 110% |  | 112%
M21Q: nisin A derivative, hinge substitution M21Q (ITSISLCTPGCKTGALMGCNQKTATCHCSIHVSK; cysteine pairing not given here; also: lantibiotic nisin-A; UniProt P13068 24-57, looked up, variant M21Q) |  |  |  |  |  |  |  |  |  | 98% | 92% | slightly diminished bioactivity | 94%
N20Y: nisin A derivative, hinge substitution N20Y (ITSISLCTPGCKTGALMGCYMKTATCHCSIHVSK; cysteine pairing not given here; also: lantibiotic nisin-A; UniProt P13068 24-57, looked up, variant N20Y) |  |  |  |  |  |  |  |  |  | 30.5% | 33.5% |  | 55%
N20I: nisin A derivative, hinge substitution N20I (ITSISLCTPGCKTGALMGCIMKTATCHCSIHVSK; cysteine pairing not given here; also: lantibiotic nisin-A; UniProt P13068 24-57, looked up, variant N20I) | − | − | − | − | − | − | − | − |  | 61% |  | retention of relatively high levels of bioactivity | 49%
N20D: nisin A derivative, hinge substitution N20D (ITSISLCTPGCKTGALMGCDMKTATCHCSIHVSK; cysteine pairing not given here; also: lantibiotic nisin-A; UniProt P13068 24-57, looked up, variant N20D) |  |  |  |  |  |  |  |  |  | 0% | 0% | devoid of bioactivity | 0%

— patent US8987193B2, “Nisin derivatives and the use thereof” (University College Cork—National University of Ireland, Cork, priority 2008, dated 2015)
